How the values were obtained:
human FSH receptor = target: T1, human FSH receptor (Homo sapiens, UniProt P23945); test: Follicle-Stimulating Hormone Receptor-Dependent Cre-Luciferase Reporter Gene Assay (CHO FSH-R 6CRE-Luc cells); type: cell-based; settings: for IC50: dose-response format, in presence of EC50 of purified human FSH
T1 construct: host or cells: CHO-K1 (CHO FSH-R 6CRE-Luc, 1D7 cells)
T1 sequence (P23945 18-695): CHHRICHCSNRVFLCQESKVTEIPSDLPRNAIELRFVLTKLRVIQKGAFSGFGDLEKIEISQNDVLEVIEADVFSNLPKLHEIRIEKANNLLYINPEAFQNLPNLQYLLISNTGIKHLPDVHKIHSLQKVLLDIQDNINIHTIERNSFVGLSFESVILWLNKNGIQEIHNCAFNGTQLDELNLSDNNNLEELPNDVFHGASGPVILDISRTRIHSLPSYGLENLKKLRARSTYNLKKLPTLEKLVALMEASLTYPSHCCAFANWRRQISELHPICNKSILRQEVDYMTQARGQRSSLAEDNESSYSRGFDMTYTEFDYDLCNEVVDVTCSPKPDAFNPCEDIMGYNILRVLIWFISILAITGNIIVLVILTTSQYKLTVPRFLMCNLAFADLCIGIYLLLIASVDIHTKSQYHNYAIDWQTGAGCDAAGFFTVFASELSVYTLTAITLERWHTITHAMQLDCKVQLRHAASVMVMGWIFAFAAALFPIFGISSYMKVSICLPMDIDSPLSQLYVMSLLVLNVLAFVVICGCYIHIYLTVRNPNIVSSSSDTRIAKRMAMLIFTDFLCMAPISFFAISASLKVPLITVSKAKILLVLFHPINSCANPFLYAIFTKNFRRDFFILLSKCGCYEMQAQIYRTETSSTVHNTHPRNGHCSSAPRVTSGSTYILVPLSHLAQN
In short: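 CHO-K1 cells stably expressing human FSH receptor and a 6×CRE-driven luciferase reporter; compounds in growth medium with 0.2% DMSO, incubated 4 h at 37 °C. Luciferase measured by chemiluminescence (RLU/sec/well); 2-dose results given as percent inhibition of the response to an EC50 concentration of FSH.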

hFSH-R = target: T2, hFSH-R (Homo sapiens, UniProt P23945); test: cAMP accumulation (RIA) in CHO-3D2 cells (hFSH-R), hFSH-induced; type: cell-based; settings: for Emax: read-out: cAMP % efficacy
T2 construct: expressed in transfected cells; host or cells: CHO-3D2 cells (CHO-K1 parental line)
T2 sequence (P23945 18-695): T1 sequence (P23945 18-695)
Procedure: In Vitro Bio-Assay, Selectivity and Dependency of Agonists and Antagonists to the FSH Receptor
Compound Vehicle: Stock compounds were solubilized in 100% DMSO (Sigma-Aldrich Chemical Co., St. Louis, Mo.) at a concentration of 30 mM. The compounds subsequently were diluted in sterile assay medium consisting of Opti-MEM® I (Invitrogen/Life Technologies, Carlsbad, Calif.) with 0.1% (w/v) BSA (Sigma-Aldrich) prior to use in the bio-assay. The final concentration of DMSO in the assay was 0.1%.
Plated cells are then incubated at 37° C. in a humidified 5% CO2/95% air atmosphere.
Assay: On the day of the assay, cells were washed three times with 100 μl/well of assay medium consisting of Opti-MEM® I (Invitrogen/Life Technologies) with 0.1% (w/v) BSA (Sigma-Aldrich). Medium was removed and 100 μl of assay medium was added to each well. Plates were incubated for an additional 30 minutes at 37° C. […] Reactions were terminated by the addition of 50 μl of 0.2N hydrochloric acid to each well and cAMP-accumulation was measured by radioimmunoassay (RIA) using a commercially available kit (Amersham Biosciences, Piscataway, N.J.).
All test compounds were evaluated in a dose-response paradigm ranging from 0.01 to 30 μM. Controls and test compounds were evaluated in quadruplicate in a 96-well format.
Along with the test compounds, FSH also was run as a positive control in the agonist mode using concentrations ranging from 0.1-1000 ng/ml.
Data were analyzed by one-way analysis of variance and significant differences between treatments and control determined by Least Significant Difference test.
Test compounds were compared to the effect of purified human FSH.

melting point [°C] | IC50 (human FSH receptor) [nM] | IC50 (hFSH-R) [nM] | Emax (hFSH-R) [%] | inhibition at 30 µM (human FSH receptor; 2-dose format, concentration in parentheses 30 μM, inhibition of the response to EC50 of FSH) [%] | Structure (SMILES)
165 to 166 | 4030 | 700 | 80 |  | COc1cc(C(=O)N2Cc3ccc(C(=O)NCc4cccc(C)c4)n3Cc3ccccc32)ccc1-c1ccccc1C [Example 37, 10-[(2-METHOXY-2′-METHYL-1,1′-BIPHENYL-4-YL)CARBONYL]-N-(3-METHYLBENZYL)-10,11-DIHYDRO-5H-PYRROLO[2,1-C][1,4]BENZODIAZEPINE-3-CARBOXAMIDE]
179 to 180 | 1690 | 500 | 83 |  | COc1cc(C(=O)N2Cc3ccc(C(=O)NCc4ccc(C)cc4)n3Cc3ccccc32)ccc1-c1ccccc1C [Example 38, 10-[(2-METHOXY-2′-METHYL-1,1′-BIPHENYL-4-YL)CARBONYL]-N-(4-METHYLBENZYL)-10,11-DIHYDRO-5H-PYRROLO[2,1-C][1,4]BENZODIAZEPINE-3-CARBOXAMIDE]
149 to 151 | 1410 | 7700 | 77 |  | Cc1ccccc1-c1ccc(C(=O)N2Cc3ccc(C(=O)NCc4ccc5c(c4)OCO5)n3Cc3ccccc32)cc1C [Example 23]
214 to 215 | 1130 | 400 | 95 |  | COc1cc(C(=O)N2Cc3ccc(C(=O)NCc4ccc(F)cc4)n3Cc3ccccc32)ccc1-c1ccccc1C [Example 60, N-(4-FLUOROBENZYL)-10-[(2-METHOXY-2′-METHYL-1,1′-BIPHENYL-4-YL)CARBONYL]-10,11-DIHYDRO-5H-PYRROLO[2,1-C][1,4]BENZODIAZEPINE-3-CARBOXAMIDE]
170 to 174 | 1350 | > 30000 |  |  | COc1cc(C(=O)N2Cc3ccc(C(=O)NCc4ccccc4)n3Cc3ccccc32)ccc1-c1ccccc1C [Example 44, N-BENZYL-10-[(2-METHOXY-2′-METHYL-1,1′-BIPHENYL-4-YL)CARBONYL]-10,11-DIHYDRO-5H-PYRROLO[2,1-C][1,4]BENZODIAZEPINE-3-CARBOXAMIDE]
196 to 197 |  | > 30000 |  | 58 | Cc1ccccc1-c1ccc(C(=O)N2Cc3ccc(C(=O)NCc4ccc(Cl)cc4)n3Cc3ccccc32)cc1C [Example 18]
171 to 173 | 8500 | 14000 | 65 |  | Cc1ccccc1-c1ccc(C(=O)N2Cc3ccc(C(=O)NCc4cccc(C(F)(F)F)c4)n3Cc3ccccc32)cc1C [Example 16]
127 to 128 | 2390 | 3600 | 63 |  | COc1ccc(CNC(=O)c2ccc3n2Cc2ccccc2N(C(=O)c2ccc(-c4ccccc4C)c(C)c2)C3)cc1 [Example 8]
183 to 184 | 12000 | > 30000 |  |  | COc1cc(CNC(=O)c2ccc3n2Cc2ccccc2N(C(=O)c2ccc(-c4ccccc4C)c(C)c2)C3)cc(OC)c1 [Example 20]
159 to 161 | 6200 | > 30000 |  |  | Cc1ccc(CNC(=O)c2ccc3n2Cc2ccccc2N(C(=O)c2ccc(-c4ccccc4C)c(C)c2)C3)c(C)c1 [Example 21]
105 to 115 | 5370 | 2600 |  |  | Cc1ccccc1-c1ccc(C(=O)N2Cc3ccc(C(=O)NCc4cccc(N)c4)n3Cc3ccccc32)cc1C [Example 34]
130 to 132 | 2880 | 3000 | 62 |  | Cc1cccc(CNC(=O)c2ccc3n2Cc2ccccc2N(C(=O)c2ccc(-c4ccccc4C)c(C)c2)C3)c1 [Example 22]
167 to 168 | 1050 | 400 | 90 |  | COc1cc(C(=O)N2Cc3ccc(C(=O)NCc4ccc5c(c4)OCO5)n3Cc3ccccc32)ccc1-c1ccccc1C [Example 40]

Reference: US7691848B2, “Pyrrolobenzodiazepine arylcarboxamides and derivatives thereof as follicle-stimulating hormone receptor antagonists” (Wyeth, priority 2005, dated 2010)
